Values quoted from earlier work, collected in patent US20240238347A1, “PHOTORECEPTOR CELLS FOR RETINAL AND MACULAR REPAIR” (The Johns Hopkins University, priority 2021, published 2024).
Where two headings read alike, the source gives them in different places.

Experiments:
[1] = test system: WERI-Rb1 retinoblastoma cells; settings: retinoblastoma cell line treated with T3
[2] = test system: ESC- and iPSC-derived organoids
Thrβ mutant organoids = settings: Thrβ KO+T3; early T3 addition
[3] = 'Early RA': 1.0 μM RA from days 43 to 130
[4] = 'Late RA': 1.0 μM RA from days 130 to 200
[5] = wild type+T3, 20 nM T3 starting from days 20 to 50 until day 200 of differentiation

For `CC1=C(/C=C/C(C)=C/C=C/C(C)=C/C(=O)O)C(C)(C)CCC1` [RA, all-trans retinoic acid], the “L cones at day 200” value (human retinal organoids; [3]) is given as 1.65%, the “M cones at day 200” value (human retinal organoids; [3]) is given as 98.35% and the “co-expressing cones at day 200” value (human retinal organoids; [3]) is given as 0%. The “L cones at day 200” value (human retinal organoids; [4]) was 92.56%, the “M cones at day 200” value (human retinal organoids; [4]) was 6.35% and the “co-expressing cones at day 200” value (human retinal organoids; [4]) was 1.10%. For the same compound, the “M-opsin and L-opsin expression (RNA-seq)” value (human retinal organoids; ESC-derived organoids grown in 'Early RA' conditions) was “high M-opsin and minimal L-opsin expression”, the “overall M/L cone densities at day 200” value (human retinal organoids; across experimental conditions (No RA, Early RA, Late RA)) was “no significant differences” and the “M-opsin expression (previously published RNA-seq data)” value (human retinal organoids; iPSC-derived organoids grown in 'Early RA' conditions) was “near exclusive expression of M-opsin”. The “organoid differentiation / M or L cone yield” value (human retinal organoids; supplemental RA throughout development (N=6)) was “failed to differentiate, yielding minimal M or L cones”.
For `N[C@@H](Cc1cc(I)c(Oc2ccc(O)c(I)c2)c(I)c1)C(=O)O` [T3, triiodothyronine], the L/M-opsin expression [1] is listed as “expresses L/M-opsin”, the cone density ([2]; early T3 addition in organoids) is listed as “dramatically increased cone density” and the “L/M cones (L/M-opsin expressing), share of cones” value [2, 5] is listed as 96%. The “S cones (S-opsin expressing), share of cones” value [2, 5] was 4%, the “L/M cones, share of cones” value (Thrβ mutant organoids) was 0% and the “S cones, share of cones” value (Thrβ mutant organoids) was 100%.
